# Test results: PubChem BioAssay (NCI)
#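 These data come from cells grown in 96-well plates and exposed to compound for 48 hours at five concentrations. Definition used: TGI = concentration required for complete inhibition of growth.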
# What was measured:
# Experiment in all cases: inhibition of tumour cell growth, NCI panel, 48 h
# [1] = system: KM20L2 colon
# [2] = system: SR leukemia
# [3] = system: MOLT-4 leukemia
# [4] = system: EKVX NSCLC
# [5] = system: SF-539 CNS
# [6] = system: MALME-3M melanoma
# [7] = system: OVCAR-4 ovarian
# [8] = system: ACHN renal
# [9] = system: RPMI-8226 leukemia
# [10] = system: SF-295 CNS
# [11] = system: RXF-631 renal
# [12] = system: DMS 114 small cell lung
# [13] = system: OVCAR-8 ovarian
# [14] = system: NCI-H522 lung
# [15] = system: SF-268 CNS
# [16] = system: HL-60(TB) leukemia
# [17] = system: CCRF-CEM leukemia
# [18] = system: K-562 leukemia
# [19] = system: HOP-62 NSCLC
# [20] = system: IGROV1 ovarian
# [21] = system: SK-OV-3 ovarian
# [22] = system: COLO 205 colon
# [23] = system: SK-MEL-5 melanoma
# [24] = system: DLD-1 colon
# [25] = system: A498 renal
# [26] = system: RXF 393 renal
# [27] = system: TK-10 renal
# [28] = system: SK-MEL-2 melanoma
# [29] = system: M19-MEL melanoma
# [30] = system: UACC-62 melanoma
# [31] = system: UO-31 renal
# [32] = system: HT29 colon
# [33] = system: NCI-H460 lung
# [34] = system: 786-0 renal
# [35] = system: SN12C renal
# [36] = system: HCC-2998 colon
# [37] = system: OVCAR-5 ovarian
# [38] = system: NCI-H23 lung
# [39] = system: OVCAR-3 ovarian
# [40] = system: SNB-19 CNS
# [41] = system: UACC-257 melanoma
# [42] = system: SW-620 colon
# [43] = system: KM12 colon
# [44] = system: A549 NSCLC
# [45] = system: HCT-116 colon
# [46] = system: SK-MEL-28 melanoma
# [47] = system: HOP-92 NSCLC
# [48] = system: SNB-75 CNS
# [49] = system: CAKI-1 renal
# [50] = system: SNB-78 CNS
# [51] = system: U251 CNS
# [52] = system: M14 melanoma
# [53] = system: NCI-H226 lung
# [54] = system: HOP-18 NSCLC
# [55] = system: LOX IMVI melanoma
# [56] = system: XF 498 CNS
# [57] = system: LXFL 529 NSCLC
smiles,measurement,setting,value
O=C(Nc1c(Cl)cc([N+](=O)[O-])cc1Cl)/C(=N\Nc1cccc(Cl)c1)c1c(O)c2ccccc2oc1=O,TGI,[1],> 100 µM
same,TGI,[2],> 100 µM
same,TGI,[3],> 100 µM
same,TGI,[4],> 100 µM
same,TGI,[5],> 100 µM
same,TGI,[6],> 100 µM
same,TGI,[7],> 100 µM
same,TGI,[8],> 100 µM
same,TGI,[9],> 100 µM
same,TGI,[10],> 100 µM
same,TGI,[11],> 100 µM
same,TGI,[12],> 100 µM
same,TGI,[13],> 100 µM
same,TGI,[14],> 100 µM
same,TGI,[15],> 100 µM
same,TGI,[16],> 100 µM
same,TGI,[17],> 100 µM
same,TGI,[18],> 100 µM
same,TGI,[19],> 100 µM
same,TGI,[20],> 100 µM
same,TGI,[21],> 100 µM
same,TGI,[22],> 100 µM
same,TGI,[23],> 100 µM
same,TGI,[24],> 100 µM
same,TGI,[25],91.4 µM
same,TGI,[26],> 100 µM
same,TGI,[27],> 100 µM
same,TGI,[28],> 100 µM
same,TGI,[29],> 100 µM
same,TGI,[30],> 100 µM
same,TGI,[31],78.1 µM
same,TGI,[32],> 100 µM
same,TGI,[33],> 100 µM
same,TGI,[34],> 100 µM
same,TGI,[35],> 100 µM
same,TGI,[36],> 100 µM
same,TGI,[37],> 100 µM
same,TGI,[38],> 100 µM
same,TGI,[39],> 100 µM
same,TGI,[40],> 100 µM
same,TGI,[41],> 100 µM
same,TGI,[42],> 100 µM
same,TGI,[43],> 100 µM
same,TGI,[44],> 100 µM
same,TGI,[45],> 100 µM
same,TGI,[46],> 100 µM
CC(Oc1ccc2cc(C(=O)c3ccccc3)c(=O)oc2c1)C(=O)O (centres undefined),TGI,[1],> 100 µM
same,TGI,[2],> 100 µM
same,TGI,[47],> 100 µM
same,TGI,[3],> 100 µM
same,TGI,[4],> 100 µM
same,TGI,[5],> 100 µM
same,TGI,[6],> 100 µM
same,TGI,[7],> 100 µM
same,TGI,[8],> 100 µM
same,TGI,[48],> 100 µM
same,TGI,[10],> 100 µM
same,TGI,[11],> 100 µM
same,TGI,[12],> 100 µM
same,TGI,[13],> 100 µM
same,TGI,[14],> 100 µM
same,TGI,[15],> 100 µM
same,TGI,[16],> 100 µM
same,TGI,[17],> 100 µM
same,TGI,[18],> 100 µM
same,TGI,[19],> 100 µM
same,TGI,[20],> 100 µM
same,TGI,[21],> 100 µM
same,TGI,[22],> 100 µM
same,TGI,[49],> 100 µM
same,TGI,[50],> 100 µM
same,TGI,[23],> 100 µM
same,TGI,[25],> 100 µM
same,TGI,[26],> 100 µM
same,TGI,[51],> 100 µM
same,TGI,[27],> 100 µM
same,TGI,[52],> 100 µM
same,TGI,[53],> 100 µM
same,TGI,[29],> 100 µM
same,TGI,[30],> 100 µM
same,TGI,[31],> 100 µM
same,TGI,[54],> 100 µM
same,TGI,[32],> 100 µM
same,TGI,[33],> 100 µM
same,TGI,[34],> 100 µM
same,TGI,[55],> 100 µM
same,TGI,[56],> 100 µM
same,TGI,[57],> 100 µM
same,TGI,[35],> 100 µM
same,TGI,[36],> 100 µM
same,TGI,[38],> 100 µM
same,TGI,[39],> 100 µM
same,TGI,[40],> 100 µM
same,TGI,[41],> 100 µM
same,TGI,[42],> 100 µM
same,TGI,[43],> 100 µM
same,TGI,[44],> 100 µM
same,TGI,[45],> 100 µM
same,TGI,[46],> 100 µM
